Assay results published in PubChem BioAssay AID330 (DTP/NCI, 2004).
“And” between values parts separate entries of the source, which are not always exact repeats. Equal entries are not always repeated. Toxic doses and inconclusive results are not listed. How the source made its calls: active means survival T/C of 150% or more; inactive means T/C below 125% in these data. Peptide text beside a SMILES is read from it. * marks the point of attachment. Boc = CC(C)(C)OC(=O)*; NHNH2 = NN*

Test system: P388 leukemia ip, CD2F1 mice, survival T/C
Test: NCI In Vivo Anticancer Drug Screen. Data for tumor model P388 Leukemia (intraperitoneal) in CD2F1 (CDF1) mice
Details: endpoint: median survival time, higher = longer survival
Outline: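 Mice carrying the transplanted tumor received test compound or vehicle. Survival was recorded in each group, and the value is the treated-group measurement divided by that of the vehicle-treated control group.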

[1] = dose: 50.0 mg/kg/injection, schedule: Q01DX009 (ip), vehicle: saline
[2] = dose: 60.0 mg/kg/injection, schedule: Q01DX005 (ip), vehicle: saline with Tween-80
[3] = dose: 120.0 mg/kg/injection, schedule: Q01DX005 (ip), vehicle: saline with Tween-80
[4] = dose: 240.0 mg/kg/injection, schedule: Q01DX005 (ip), vehicle: saline with Tween-80
[5] = dose: 12.5 mg/kg/injection, schedule: Q01DX009 (ip), vehicle: saline
[6] = dose: 25.0 mg/kg/injection, schedule: Q01DX009 (ip), vehicle: saline
[7] = dose: 100.0 mg/kg/injection, schedule: Q01DX009 (ip), vehicle: saline with Tween-80
[8] = dose: 200.0 mg/kg/injection, schedule: Q01DX009 (ip), vehicle: saline with Tween-80
[9] = dose: 50.0 mg/kg/injection, schedule: Q01DX005 (ip), vehicle: Klucel (hydroxypropylcellulose) (HPC)
[10] = dose: 100.0 mg/kg/injection, schedule: Q01DX005 (ip), vehicle: Klucel (hydroxypropylcellulose) (HPC)
[11] = dose: 25.0 mg/kg/injection, schedule: Q01DX009 (ip), vehicle: saline with Tween-80
[12] = dose: 50.0 mg/kg/injection, schedule: Q01DX009 (ip), vehicle: saline with Tween-80
[13] = dose: 50.0 mg/kg/injection, schedule: Q01DX009 (ip), vehicle: Klucel (hydroxypropylcellulose) (HPC)
[14] = dose: 100.0 mg/kg/injection, schedule: Q01DX009 (ip), vehicle: Klucel (hydroxypropylcellulose) (HPC)
[15] = dose: 200.0 mg/kg/injection, schedule: Q01DX009 (ip), vehicle: Klucel (hydroxypropylcellulose) (HPC)
[16] = dose: 50.0 mg/kg/injection, schedule: Q01DX005 (ip), vehicle: saline
[17] = dose: 60.0 mg/kg/injection, schedule: Q01DX005 (ip), vehicle: Klucel (hydroxypropylcellulose) (HPC)

Measured: T/C

O=C1CCCc2cc([N+](=O)[O-])ccc2N1
inactive: dose: 100.0 mg/kg/injection, schedule: Q01DX001 (ip), vehicle: Klucel (hydroxypropylcellulose) (HPC) 101 % of control | dose: 200.0 mg/kg/injection, schedule: Q01DX001 (ip), vehicle: Klucel (hydroxypropylcellulose) (HPC) 103 % of control | dose: 400.0 mg/kg/injection, schedule: Q01DX001 (ip), vehicle: Klucel (hydroxypropylcellulose) (HPC) 102 % of control

Oc1ccc(Cl)cc1C1CCCCC1
inactive: [1] 100 % of control | dose: 100.0 mg/kg/injection, schedule: Q01DX009 (ip), vehicle: saline 100 % of control | dose: 200.0 mg/kg/injection, schedule: Q01DX009 (ip), vehicle: saline 98 % of control

COC(=O)c1ccc(N=NN(C)CO)cc1
inactive: [2] 97 % of control | [3] 108 % of control | [4] 115 % of control

O=c1[nH]c2ccccc2c2cc3ccccc3cc12
inactive: dose: 6.25 mg/kg/injection, schedule: Q01DX009 (ip), vehicle: saline 94 % of control | [5] 86 % of control | [6] 99 % of control | [1] 96 % of control | [7] 89 % of control | [8] 89 % of control | dose: 400.0 mg/kg/injection, schedule: Q01DX009 (ip), vehicle: saline with Tween-80 89 % of control

CS(C)(=O)=NS(=O)(=O)c1ccc([N+](=O)[O-])cc1
inactive: dose: 100.0 mg/kg/injection, schedule: Q04DX002 (ip), vehicle: Klucel (hydroxypropylcellulose) (HPC) 100 % of control | dose: 200.0 mg/kg/injection, schedule: Q04DX002 (ip), vehicle: Klucel (hydroxypropylcellulose) (HPC) 95 % of control | dose: 400.0 mg/kg/injection, schedule: Q04DX002 (ip), vehicle: Klucel (hydroxypropylcellulose) (HPC) 96 % of control

N#CC(Cl)CNC(=O)Oc1ccccc1 (centres undefined)
inactive: [9] 97 % of control

O=C1CCOCCCOCCC(=O)OCCCOC(=O)CCOCCCOCCC(=O)OCCCO1
inactive: [9] 100 % of control | [10] 105 % of control

Cc1ccc(S(=O)C2=CCCO2)cc1 (centres undefined)
inactive: dose: 12.5 mg/kg/injection, schedule: Q01DX005 (ip), vehicle: Klucel (hydroxypropylcellulose) (HPC) 100 % of control | dose: 25.0 mg/kg/injection, schedule: Q01DX005 (ip), vehicle: Klucel (hydroxypropylcellulose) (HPC) 102 % of control | [9] 101 % of control and 108 % of control | [10] 119 % of control | dose: 200.0 mg/kg/injection, schedule: Q01DX005 (ip), vehicle: Klucel (hydroxypropylcellulose) (HPC) 118 % of control

ClC1CN2CCC1CC2 (centres undefined)
inactive: dose: 12.5 mg/kg/injection, schedule: Q01DX009 (ip), vehicle: saline with Tween-80 91 % of control | [11] 95 % of control | [12] 100 % of control

CN(C)c1ccc(C(=O)Cc2ccc3ccccc3n2)cc1
inactive: [13] 92 % of control | [14] 89 % of control | [15] 102 % of control

CC(C)(C=O)CNC(C)(C)C
inactive: [11] 110 % of control | [12] 100 % of control and 108 % of control | [7] 103 % of control and 105 % of control | [8] 91 % of control and 103 % of control

NCC(c1ccccc1)C1CCCCC1 (centres undefined)
inactive: dose: 12.5 mg/kg/injection, schedule: Q01DX005 (ip), vehicle: saline 103 % of control | dose: 25.0 mg/kg/injection, schedule: Q01DX005 (ip), vehicle: saline 94 % of control | [16] 100 % of control and 95 % of control

COc1ccc(/C=N/NC(N)=O)c(OC)c1OC
inactive: [13] 100 % of control | [14] 103 % of control | [15] 98 % of control

O=C1OI(O)c2ccccc21
inactive: [17] 106 % of control | dose: 120.0 mg/kg/injection, schedule: Q01DX005 (ip), vehicle: Klucel (hydroxypropylcellulose) (HPC) 106 % of control

O=C1/C(=C/c2ccccc2[N+](=O)[O-])COc2ccccc21
inactive: [2] 97 % of control | [3] 103 % of control | [4] 97 % of control

NC(CCC(=O)O)C(=O)NC(Cc1c[nH]c2ccccc12)C(=O)NC(CCC(=O)O)C(=O)O (stereo not drawn) (H-Glu-Trp-Glu-OH; configuration not given here)
inactive: [16] 93 % of control | dose: 100.0 mg/kg/injection, schedule: Q01DX005 (ip), vehicle: saline 104 % of control | dose: 200.0 mg/kg/injection, schedule: Q01DX005 (ip), vehicle: saline 105 % of control

Cc1ccc(N(CN2C(=O)CCC2=O)CS(=O)(=O)c2ccc(Cl)cc2)cc1
inactive: dose: 15.0 mg/kg/injection, schedule: Q01DX005 (ip), vehicle: Klucel (hydroxypropylcellulose) (HPC) 107 % of control | dose: 30.0 mg/kg/injection, schedule: Q01DX005 (ip), vehicle: Klucel (hydroxypropylcellulose) (HPC) 91 % of control | [17] 93 % of control and 95 % of control | dose: 240.0 mg/kg/injection, schedule: Q01DX005 (ip), vehicle: Klucel (hydroxypropylcellulose) (HPC) 90 % of control

O=C1C=CC(=O)C2C1CC=C1CCCCC12 (centres undefined)
inactive: dose: 7.5 mg/kg/injection, schedule: Q01DX009 (ip), vehicle: saline with Tween-80 106 % of control | dose: 15.0 mg/kg/injection, schedule: Q01DX009 (ip), vehicle: saline with Tween-80 109 % of control | dose: 30.0 mg/kg/injection, schedule: Q01DX009 (ip), vehicle: saline with Tween-80 103 % of control

S=C1SCN(C2CCCCC2)CN1C1CCCCC1
inactive: [14] 100 % of control | [15] 105 % of control | dose: 400.0 mg/kg/injection, schedule: Q01DX009 (ip), vehicle: Klucel (hydroxypropylcellulose) (HPC) 107 % of control

CC(C)CC(NC(=O)C(Cc1c[nH]c2ccccc12)NC(=O)OC(C)(C)C)C(=O)NN (stereo not drawn) (Boc-Trp-Leu-NHNH2; configuration not given here)
inactive: dose: 12.5 mg/kg/injection, schedule: Q01DX009 (ip), vehicle: other 100 % of control | dose: 25.0 mg/kg/injection, schedule: Q01DX009 (ip), vehicle: other 94 % of control | dose: 50.0 mg/kg/injection, schedule: Q01DX009 (ip), vehicle: other 97 % of control | dose: 100.0 mg/kg/injection, schedule: Q01DX009 (ip), vehicle: other 105 % of control and 110 % of control

Cc1ccc(N2C(=O)N(c3ccc(C)cc3)C3(Sc4ccccc4N3C)C2=O)cc1 (centres undefined)
inactive: dose: 25.0 mg/kg/injection, schedule: Q04DX002 (ip), vehicle: saline with Tween-80 95 % of control | dose: 50.0 mg/kg/injection, schedule: Q04DX002 (ip), vehicle: saline with Tween-80 92 % of control | dose: 100.0 mg/kg/injection, schedule: Q04DX002 (ip), vehicle: saline with Tween-80 89 % of control

OC(CN(Cc1nc2ccccc2[nH]1)Cc1nc2ccccc2[nH]1)CN(Cc1nc2ccccc2[nH]1)Cc1nc2ccccc2[nH]1
inactive: [2] 115 % of control | [3] 115 % of control

CCOP(=S)(O/C(=C/Cl)c1cc(Cl)c(Cl)cc1Cl)c1ccccc1 (centres undefined)
inactive: [13] 92 % of control | [14] 95 % of control | [15] 96 % of control

CSc1nc2[nH]ncc2c(=O)[nH]1
inactive: dose: 25.0 mg/kg/injection, schedule: Q01DX009 (ip), vehicle: Klucel (hydroxypropylcellulose) (HPC) 101 % of control | [13] 99 % of control | [14] 93 % of control | [15] 86 % of control

Cc1nc(N)[nH]c(=O)c1-c1ccc(Cl)cc1
inactive: dose: 100.0 mg/kg/injection, schedule: Q04DX003 (ip), vehicle: Klucel (hydroxypropylcellulose) (HPC) 106 % of control | dose: 200.0 mg/kg/injection, schedule: Q04DX003 (ip), vehicle: Klucel (hydroxypropylcellulose) (HPC) 105 % of control | dose: 400.0 mg/kg/injection, schedule: Q04DX003 (ip), vehicle: Klucel (hydroxypropylcellulose) (HPC) 99 % of control

Cc1ccc(-n2ncc3c(=O)n(-c4cccc(C)c4)c(=O)[nH]c32)cc1
inactive: [13] 99 % of control | [14] 97 % of control | [15] 96 % of control

O=C(CNC(=O)Nc1cccc([N+](=O)[O-])c1)NNC(=O)Nc1ccc(Cl)c([N+](=O)[O-])c1
inactive: [2] 91 % of control | [3] 91 % of control | [4] 106 % of control

CN1CC[C@]23c4c5ccc(O)c4O[C@H]2C(=O)CC[C@H]3[C@H]1C5
inactive: dose: 12.5 mg/kg/injection, schedule: Q01DX005 (iv), vehicle: saline 99 % of control and 102 % of control | [5] 108 % of control | dose: 25.0 mg/kg/injection, schedule: Q01DX005 (iv), vehicle: saline 102 % of control and 106 % of control | [6] 111 % of control | dose: 50.0 mg/kg/injection, schedule: Q01DX005 (iv), vehicle: saline 99 % of control and 102 % of control | [1] 103 % of control and 97 % of control | dose: 100.0 mg/kg/injection, schedule: Q01DX005 (iv), vehicle: saline 101 % of control | dose: 200.0 mg/kg/injection, schedule: Q01DX005 (iv), vehicle: saline 102 % of control
